Experimental data from patent US9175013B2, “Fused aminodihydrothiazine derivatives” (Eisai R&D Management Co., Ltd., priority 2011, dated 2015).
Like-named read-outs stand apart in the source and are kept apart here.

Legend:
[1] = test system: Aβ peptide production in rat primary neuronal culture; assay: In vitro cellular assay: quantification of Aβ peptide in culture of neurons from rat fetus brain; type: cell-based, Wistar rat; conditions: Primary cortical neuron; Aβ ELISA, rat primary cortical neurons; Aβ species (x-40 or x-42) not given; read-out: IC50
Experimental: Quantification of Aβ Peptide in Culture of Neurons from Rat Fetus Brain
Primary neuronal cultures were prepared from the cerebral cortex of embryonic day 18 Wistar rats (Charles River, UK). Specifically, the embryos were aseptically removed from pregnant rats under ether anesthesia. The brain was isolated from the embryo and immersed in HBSS (Sigma Aldrich #H9269) containing 10 mM HEPES (Gibco #15630-056). The cerebral cortex was collected from the isolated brain under a stereoscopic microscope. The cerebral cortex fragments collected were enzymatically treated in an enzyme solution containing 0.05% trypsin-EDTA solution (GIBCO, #25300) at 37° C. for 20 minutes to disperse the cells. The cells were then washed twice and then gently resuspended in Neurobasal medium (Gibco #21103) supplemented with 2% B27 supplement (GIBCO #17504-044), 0.5 mM L-glutamine (GIBCO #25030), 1×N2 (GIBCO #17502-048), 100 μg/ml Pen/Strep (GIBCO 15140-122) and 5% heat inactivated FCS (PAA #A15-701). The cell dispersion was filtered through a 40-μm nylon mesh (BD Falcon #352340) to remove the remaining cell mass, and thus a neuronal cell suspension was obtained. The neuronal cell suspension was diluted with the medium above and then plated in a volume of 100 μL/well at an initial cell density of 3.25×10^5 cells/ml in poly-D-lysine coated 96-well culture plate (Greiner #655940). The plated cells were cultured in the culture plate at 37° C. in 5% CO2-95% air for 24 hrs. The total amount of the medium was replaced with ‘assay Neurobasal medium’ (as above excluding heat inactivated FCS), and then the cells were cultured for a further five days.
The drug was added to the culture plate on Day 6 of culture as follows. 8 point compound serial dilutions were generated in DMSO at a concentration of ×1000 that of the final assay concentration (FAC). Compound solutions were then prepared by adding 999 ul of ‘Assay Neurobasal media’ (as described in above section) to 1 ul of DMSO compound stock. The total amount of the medium was removed from each of the cell plate wells, and […] of ‘Assay Neurobasal media’ was added followed by […] of compound solution. The final DMSO concentration was 0.1%. […]
Cell survival was evaluated using an Alamar assay according to the following procedure. […]
Measurement of fluorescence intensity for each well was the carried out at 540/590 nm using a Pherastar plus plate reader (BMG labtech). […]
Human/Rat β Amyloid (42) ELISA Kit Wako (#290-62601) and Human/Rat P Amyloid (40) ELISA Kit Wako (#294-62501) from Wako Pure Chemical Industries, Ltd. were used for Aβ ELISA. […] The results were shown as percentage of the control groups and IC50 values for each compound were determined using four parameter logistic fit model using the XLFIT5 software package (IDBS).

[2] = target: BACE-1 (Homo sapiens, UniProt P56817); conditions: cited from earlier work
[3] = TASTPM mice, cited from earlier work; for brain concentration: oral dose of 250 mg/kg
[4] = test system: Aβ40; conditions: TASTPM mice, cited from earlier work

BACE-1, sequence (P56817 46-501, species assumed): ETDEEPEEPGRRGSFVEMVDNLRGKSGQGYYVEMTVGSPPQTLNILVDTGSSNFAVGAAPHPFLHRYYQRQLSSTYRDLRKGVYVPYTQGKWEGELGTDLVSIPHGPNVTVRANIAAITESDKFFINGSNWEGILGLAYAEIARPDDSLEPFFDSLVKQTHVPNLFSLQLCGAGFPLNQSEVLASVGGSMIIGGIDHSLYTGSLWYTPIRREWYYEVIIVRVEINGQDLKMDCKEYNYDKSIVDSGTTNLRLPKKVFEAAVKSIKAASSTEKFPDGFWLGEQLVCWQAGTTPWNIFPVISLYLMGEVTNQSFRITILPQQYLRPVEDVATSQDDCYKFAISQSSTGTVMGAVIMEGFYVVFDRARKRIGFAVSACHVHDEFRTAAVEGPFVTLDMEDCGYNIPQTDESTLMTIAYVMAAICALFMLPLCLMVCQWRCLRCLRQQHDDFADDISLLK

Row | IC50 [1] | Compound | IC50 [2] | increase in CNS penetration by co-administration of a Pgp inhibitor ([3]; 250 mg/kg oral, with vs without GF120918) | brain concentration ([3]; Pgp inhibitor GF120918 dosed 5 hours before) | brain concentration ([3]; no Pgp inhibitor) | effect on brain Aβ40 levels ([4]; 250 mg/kg oral dose, absence of a Pgp inhibitor) | reduction in brain Aβ40 levels relative to vehicle-treated mice ([4]; 250 mg/kg oral, Pgp inhibitor co-administered 5 hours prior)
1 | 7 nM | COc1cnc(C(=O)Nc2cc(F)c(F)c([C@]34CO[C@H](C(F)F)[C@H]3CSC(N)=N4)c2)cn1 [Example 1, N-(3-((4aS,5S,7aS)-2-amino-5-(difluoromethyl)-4a,5,7,7a-tetrahydro-4H-furo[3,4-d][1,3]thiazin-7a-yl)-4,5-difluorophenyl)-5-methoxypyrazine-2-carboxamide] |  |  |  |  |  | 
2 |  | CCNc1cc(C(=O)N[C@@H](Cc2ccccc2)[C@H](O)CNCc2cccc(C(F)(F)F)c2)c(F)c(N2CCCCS2(=O)=O)c1 [GSK188909] | 5 nM | ~9 fold | 5.43 µM | 0.62 µM | did not have any effect | 68%
